Assay results as given in patent US20060159639A1, “Pseudo body odor composition and perfume composition for inhibiting body odor” (priority 2003, published 2006).

Test: Suppression test of Experimental Example 1: masking and harmonizing effect in a cup, four expert panelists;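 on harmonizing: score 1 means in harmony 0 indefinite and −1 not in harmony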
Conditions: not given
Method: In the present invention, the selection of the above component (I), component (II) and component (III) was carried out as follows. That is, one of the pseudo body odor compositions mentioned above and a target fragrance component were mixed and left at room temperature for 30 minutes. Thereafter, evaluations of the masking and harmonizing effects to the acid odor were carried out by four expert panelists.
After 30 minutes, a hole of about 1 cm in diameter was formed in the aluminum foil and the investigations of masking effect and the harmonizing effect were carried out according to following evaluation criteria by four expert panelists.
3: Excellent in the masking.
2: Substantially excellent in the masking.
1: Slightly sensible of the body odor (sweat odor and armpit odor).
0: Sensible of the body odor (sweat odor and armpit odor) (insufficient in the masking)

| Molecule | Harmonizing | Masking [points] |
| --- | --- | --- |
| CC(=O)C(C)=C(C)C(C)C(C)(C)C (centres unmarked) [Koavone, ethylene tetramethyl heptanone] | 1 | 2.5 |

Same assay, conditions: 200 μl pseudo body odor composition of Example 4 and 10 μl perfume on filter papers in sealed about 500 ml cup, after 30 minutes, four expert panelists, scale 0-3

| Molecule | Masking |
| --- | --- |
| CC(C)=CCCC1=CCC(C)(C=O)CC1 (centres unmarked) [Homomyracaldehyde, 1-methyl-4-(4-methyl-3-pentenyl)-3-cyclohexen carboxy aldehyde] | 1 |
| 2-butyl-4,6-dimethyl-dihydro-pyran [Vigorose] | 3 |
| C/C=C/C(=O)C1=C(C)C=CCC1(C)C [Damascenone] | 2 |
| CC(C)=C[C@@H]1C[C@H](C)CCO1 [L-Rose oxide] | 3 |
| CCCCCC1COCCC1OC(C)=O (centres unmarked) [Jasmal, 3-pentyl tetrahydropyranyl acetate] | 1 |
| CCCCCCOC(=O)c1ccccc1O [Hexyl salicylate] | 1 |
| CCCCCCCCC=O [Nonanal] | 1.5 points |
| CC(=CCC1CC=C(C)C1(C)C)CO (centres unmarked) [Sandalmysore core, 2-methyl-4-(2,2,3-trimethyl-3-cyclopentene-1-yl)-2-butene-1-ol] | 2.5 points |
| O=C(OCCc1ccccc1)c1ccccc1O [Phenylethyl salicylate] | 1 |
| O=C/C=C/c1ccccc1 [Cinnamic aldehyde] | 2 |
| CC(C)=CCCC(C)CC#N (centres unmarked) [Citronellyl nitrile] | 3 |
| CCCCCCCCC=CCC=O [Example 3-Dodecenal, 3-Dodecenal] | 0.5 points |
| CC(=O)OCc1ccccc1 [Benzyl acetate] | 2.5 points |
| CC1CC(C)(c2ccccc2)OC(C)O1 (centres unmarked) [Floropal, 2,4,6-trimethyl-4-phenyl-1,3-dioxane] | 1 |
| Cc1ccc(C(C)C)c(O)c1 [Thymol] | 1 |
| CC(=O)C1=C(C)[C@@H]2C[C@@]3(C1)[C@H](C)CC[C@H]3C2(C)C [Woodyflor, acetylcedrene] | 1.5 points |
| CC1=CC(C)C(C=O)C(C)C1 (centres unmarked) [Isocyclocitral, trimethyl cyclohexene carbalehyde] | 2.5 points |
| CC(=O)/C=C/C1=C(C)CCCC1(C)C [β-Ionone] | 1.5 points |
| CC(C)=CCCC(C)C=O (centres unmarked) [2,6-Dimethyl-5-heptenal] | 3 |
| CC/C=C\CC1=C(C)CCC1=O [cis-Jasmone] | 1 |
| CC(=O)OC(c1ccccc1)C(Cl)(Cl)Cl (centres unmarked) [Rosephenone, trichloromethyl phenyl carbinyl acetate] | 1.5 points |
| CCC(O)COC1CCCCC1C(C)(C)C (centres unmarked) [Amber core, 1-(2-tert-butylcyclohexyloxy)butane-2-ol] | 0.5 points |
| OCCc1ccccc1 [Phenylethyl alcohol] | 2.5 points |
| CCCCCCCC=O [Octanal] | 3 |

| Molecule | Masking |
| --- | --- |
| CCCC(O)CCC1C(C)CCCC1(C)C (centres unmarked) [Ambestol, 1-(2,2,6-trimethylcyclohexyl)-3-hexanol] | 0 |
| C=CCOC(=O)COC1CCCCC1 [Cyclogalbanate, allyl cyclohexyl oxyacetate] | 2.5 points |
| C=CCOC(=O)COCCC(C)C [Allyl amyl glycolate] | 3 |
| C=CCCCCCCCCO [Example 9-Decen-1-ol, 9-Decen-1-ol] | 1.5 points |
| CC(C)(C)C1CCC(O)CC1 (centres unmarked) [p-tert-Butylcyclohexanol] | 1.5 points |
| CC(C)=CCCC(C)CCO (centres unmarked) [Citronellol] | 2.5 points |
| COC(=O)c1ccccc1 [Methyl benzoate] | 3 |
| Methyl naphthyl ketone | 1.5 points |
| CC/C=C\CCOC(C)=O [cis-3-Hexenyl acetate] | 3 |
| COC(Cc1ccccc1)OC [Phenylactoaldehyde dimethylacetal] | 2 |
| CC(=O)OC(C)c1ccccc1 (centres unmarked) [Styralyl acetate] | 3 |
| O=C(OCc1ccccc1)c1ccccc1O [Benzyl salicylate] | 1 |
| CCCCCCCCCCC=CC#N [Tridecene-2-nitrile] | 1.5 points |
| CC(=O)OCCc1ccccc1 [Phenylethyl acetate] | 2.5 points |
| CC(C)[C@@H]1CC[C@@H](C)CC1=O [Mentone] | 3 |
| CC1=CC(C)C(C=O)CC1 (centres unmarked) [Tripral, Dimethyl tetrahydrobenzaldehyde] | 3 |
| CCCCCC1C(=O)CCC1CC(=O)OC (centres unmarked) [Methyl dihydrojasmonate] | 2 |
| C=C(C)C1CC=C(C)C(=O)C1 (centres unmarked) [Example 1-Carvone, 1-Carvone] | 3 |
| CC(C)=CCCC(C)CC=O (centres unmarked) [Citronellal] | 3 |
| C/C=C/C(=O)C1C(C)C=CCC1(C)C (centres unmarked) [δ-Damascone] | 1.5 points |
| isocamphyl cyclohexanol [Santalex] | 0.5 points |
| O=CCCC=C1CC2CC1C1CCCC21 (centres unmarked) [4-Tricyclodecylene butanal] | 1.5 points |
| CC(=O)O[C@]1(C)CC[C@@]23C[C@@H]1C(C)(C)[C@@H]2CC[C@H]3C [Cedryl acetate] | 0 |
| CCOC(=O)C1OC1(C)c1ccccc1 (centres unmarked) [Ethyl-3-methyl-3-phenyl glycidate] | 2 |

| Molecule | Masking |
| --- | --- |
| COc1ccc(C)cc1 [p-Cresyl methyl ether] | 3 |
| C=CC(C)CCCC(C)(C)O (centres unmarked) [Dihydromyrcenol] | 1.5 points |
| CC(=O)CCc1ccc(O)cc1 [Raspberry ketone, 4-(4-hydroxyphenyl)-2-butanone] | 0.5 points |
| c1ccc(Oc2ccccc2)cc1 [Diphenyl oxide] | 1.5 points |
| C=CCCC(=O)/C=C/C1C(C)=CCCC1(C)C (centres unmarked) [Allylionone] | 2.5 points |
| C=CC(C)(CCC=C(C)C)OC(C)=O (centres unmarked) [Linalyl acetate] | 1 |
| O=CCc1ccccc1 [Phenyl acetoaldehyde] | 3 |
| CC(C)[C@@H]1CC[C@@H](C)C[C@H]1O [l-Menthol] | 1 |
| CCCOC(C)OCCc1ccccc1 (centres unmarked) [Acetoaldehydephenylethylpropyl acetal] | 2.5 points |
| CCCCCCC1CCC(=O)O1 (centres unmarked) [γ-Decalactone] | 2.5 points |
| CCCCCOC(=O)c1ccccc1O [Amyl salicylate] | 1 |
| COC(=O)Cc1ccccc1 [Methyl phenyl acetate] | 2.5 points |
| CCOC(=O)CC(C)=O [Ethyl acetoacetate] | 3 |
| CC(=O)OC1CC2CC1C1CC=CC21 (centres unmarked) [Tricyclodecenyl acetate] | 1.5 points |
| CC(C)=CC1CC(C)CCO1 (centres unmarked) [Rose oxide] | 3 |
| C=CCOC(=O)CCCCC [Allyl caproate] | 3 |
| CCCCCCCCCCCC=O [Dodecanal] | 1.5 points |
| C/C=C/C(=O)C1=C(C)CCCC1(C)C [β-Damascone] | 2 |
| COc1ccc(C=O)cc1 [4-Methoxybenzaldehyde] | 2.5 points |
| CC12CCC(CC1=O)C2(C)C (centres unmarked) [Camphor] | 3 |
| C=CC(C)(O)CCC=C(C)C (centres unmarked) [Linalool] | 1 |
| CC(C)=CCCC(C)=CC=O [Citral] | 3 |
| CCOC(=O)C1C(C)CCCC1(C)C (centres unmarked) [Thesaron, ethyl 2,2,6-trimethylcyclohexane carboxylate] | 2 |
| Methylionone | 2 |

Same assay, conditions: 200 μl pseudo body odor composition of Example 4 and 10 μl perfume on filter papers in sealed about 500 ml cup, after 30 minutes, four expert panelists, scale −1 to 1

| Molecule | Harmonizing |
| --- | --- |
| CC(C)=CCCC1=CCC(C)(C=O)CC1 (centres unmarked) [Homomyracaldehyde, 1-methyl-4-(4-methyl-3-pentenyl)-3-cyclohexen carboxy aldehyde] | −1 |
| 2-butyl-4,6-dimethyl-dihydro-pyran [Vigorose] | 1 |
| C/C=C/C(=O)C1=C(C)C=CCC1(C)C [Damascenone] | 1 |
| CC(C)=C[C@@H]1C[C@H](C)CCO1 [L-Rose oxide] | 1 |
| CCCCCC1COCCC1OC(C)=O (centres unmarked) [Jasmal, 3-pentyl tetrahydropyranyl acetate] | −1 |
| CCCCCCOC(=O)c1ccccc1O [Hexyl salicylate] | −1 |
| CCCCCCCCC=O [Nonanal] | −1 |
| CC(=CCC1CC=C(C)C1(C)C)CO (centres unmarked) [Sandalmysore core, 2-methyl-4-(2,2,3-trimethyl-3-cyclopentene-1-yl)-2-butene-1-ol] | 1 |
| O=C(OCCc1ccccc1)c1ccccc1O [Phenylethyl salicylate] | −1 |
| O=C/C=C/c1ccccc1 [Cinnamic aldehyde] | 0 |
| CC(C)=CCCC(C)CC#N (centres unmarked) [Citronellyl nitrile] | 1 |
| CCCCCCCCC=CCC=O [Example 3-Dodecenal, 3-Dodecenal] | −1 |
| CC(=O)OCc1ccccc1 [Benzyl acetate] | 1 |
| CC1CC(C)(c2ccccc2)OC(C)O1 (centres unmarked) [Floropal, 2,4,6-trimethyl-4-phenyl-1,3-dioxane] | 0 |
| Cc1ccc(C(C)C)c(O)c1 [Thymol] | −1 |
| CC(=O)C1=C(C)[C@@H]2C[C@@]3(C1)[C@H](C)CC[C@H]3C2(C)C [Woodyflor, acetylcedrene] | −1 |
| CC1=CC(C)C(C=O)C(C)C1 (centres unmarked) [Isocyclocitral, trimethyl cyclohexene carbalehyde] | 1 |
| CC(=O)/C=C/C1=C(C)CCCC1(C)C [β-Ionone] | −1 |
| CC(C)=CCCC(C)C=O (centres unmarked) [2,6-Dimethyl-5-heptenal] | 1 |
| CC/C=C\CC1=C(C)CCC1=O [cis-Jasmone] | −1 |
| CC(=O)OC(c1ccccc1)C(Cl)(Cl)Cl (centres unmarked) [Rosephenone, trichloromethyl phenyl carbinyl acetate] | 0 |
| CCC(O)COC1CCCCC1C(C)(C)C (centres unmarked) [Amber core, 1-(2-tert-butylcyclohexyloxy)butane-2-ol] | −1 |
| OCCc1ccccc1 [Phenylethyl alcohol] | 1 |
| CCCCCCCC=O [Octanal] | 1 |
| CCCC(O)CCC1C(C)CCCC1(C)C (centres unmarked) [Ambestol, 1-(2,2,6-trimethylcyclohexyl)-3-hexanol] | −1 |

| Molecule | Harmonizing |
| --- | --- |
| C=CCOC(=O)COC1CCCCC1 [Cyclogalbanate, allyl cyclohexyl oxyacetate] | 1 |
| C=CCOC(=O)COCCC(C)C [Allyl amyl glycolate] | 1 |
| C=CCCCCCCCCO [Example 9-Decen-1-ol, 9-Decen-1-ol] | 0 |
| CC(C)(C)C1CCC(O)CC1 (centres unmarked) [p-tert-Butylcyclohexanol] | 0 |
| CC(C)=CCCC(C)CCO (centres unmarked) [Citronellol] | 1 |
| COC(=O)c1ccccc1 [Methyl benzoate] | 1 |
| Methyl naphthyl ketone | −1 |
| CC/C=C\CCOC(C)=O [cis-3-Hexenyl acetate] | 1 |
| COC(Cc1ccccc1)OC [Phenylactoaldehyde dimethylacetal] | 1 |
| CC(=O)OC(C)c1ccccc1 (centres unmarked) [Styralyl acetate] | 1 |
| O=C(OCc1ccccc1)c1ccccc1O [Benzyl salicylate] | −1 |
| CCCCCCCCCCC=CC#N [Tridecene-2-nitrile] | 0 |
| CC(=O)OCCc1ccccc1 [Phenylethyl acetate] | 1 |
| CC(C)[C@@H]1CC[C@@H](C)CC1=O [Mentone] | 1 |
| CC1=CC(C)C(C=O)CC1 (centres unmarked) [Tripral, Dimethyl tetrahydrobenzaldehyde] | 1 |
| CCCCCC1C(=O)CCC1CC(=O)OC (centres unmarked) [Methyl dihydrojasmonate] | 1 |
| C=C(C)C1CC=C(C)C(=O)C1 (centres unmarked) [Example 1-Carvone, 1-Carvone] | 1 |
| CC(C)=CCCC(C)CC=O (centres unmarked) [Citronellal] | 1 |
| C/C=C/C(=O)C1C(C)C=CCC1(C)C (centres unmarked) [δ-Damascone] | 0 |
| isocamphyl cyclohexanol [Santalex] | −1 |
| O=CCCC=C1CC2CC1C1CCCC21 (centres unmarked) [4-Tricyclodecylene butanal] | 0 |
| CC(=O)O[C@]1(C)CC[C@@]23C[C@@H]1C(C)(C)[C@@H]2CC[C@H]3C [Cedryl acetate] | −1 |
| CCCCCCC(C=O)=Cc1ccccc1 [α-Hexyl cinnamic aldehyde] | −1 |
| CCOC(=O)C1OC1(C)c1ccccc1 (centres unmarked) [Ethyl-3-methyl-3-phenyl glycidate] | 0 |
| COc1ccc(C)cc1 [p-Cresyl methyl ether] | 1 |

| Molecule | Harmonizing |
| --- | --- |
| C=CC(C)CCCC(C)(C)O (centres unmarked) [Dihydromyrcenol] | −1 |
| CC(=O)CCc1ccc(O)cc1 [Raspberry ketone, 4-(4-hydroxyphenyl)-2-butanone] | −1 |
| c1ccc(Oc2ccccc2)cc1 [Diphenyl oxide] | 0 |
| C=CCCC(=O)/C=C/C1C(C)=CCCC1(C)C (centres unmarked) [Allylionone] | 0 |
| C=CC(C)(CCC=C(C)C)OC(C)=O (centres unmarked) [Linalyl acetate] | −1 |
| O=CCc1ccccc1 [Phenyl acetoaldehyde] | 1 |
| CC(C)[C@@H]1CC[C@@H](C)C[C@H]1O [l-Menthol] | −1 |
| O=c1ccc2ccccc2o1 [Coumarin] | 1 |
| CCCOC(C)OCCc1ccccc1 (centres unmarked) [Acetoaldehydephenylethylpropyl acetal] | 1 |
| CCCCCCC1CCC(=O)O1 (centres unmarked) [γ-Decalactone] | 1 |
| CCCCCOC(=O)c1ccccc1O [Amyl salicylate] | 0 |
| COC(=O)Cc1ccccc1 [Methyl phenyl acetate] | 1 |
| CCOC(=O)CC(C)=O [Ethyl acetoacetate] | 1 |
| CC(=O)OC1CC2CC1C1CC=CC21 (centres unmarked) [Tricyclodecenyl acetate] | 0 |
| CC(C)=CC1CC(C)CCO1 (centres unmarked) [Rose oxide] | 1 |
| C=CCOC(=O)CCCCC [Allyl caproate] | 1 |
| CCCCCCCCCCCC=O [Dodecanal] | −1 |
| C/C=C/C(=O)C1=C(C)CCCC1(C)C [β-Damascone] | 1 |
| COc1ccc(C=O)cc1 [4-Methoxybenzaldehyde] | 1 |
| CC12CCC(CC1=O)C2(C)C (centres unmarked) [Camphor] | 1 |
| CCCCCCCCCC(C)C=O (centres unmarked) [2-Methyl undecanal] | 0 |
| C=CC(C)(O)CCC=C(C)C (centres unmarked) [Linalool] | 0 |
| CC(C)=CCCC(C)=CC=O [Citral] | 1 |
| CCOC(=O)C1C(C)CCCC1(C)C (centres unmarked) [Thesaron, ethyl 2,2,6-trimethylcyclohexane carboxylate] | 0 |
| Methylionone | 1 |
